Where “and” joins values, the source holds several entries; their conditions need not be identical. Equal entries are not always repeated.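 1) Cells in 96-well plates. 2) Compound, 48 h, 5 concentrations. 3) Linear interpolation between surrounding doses. 4) Unreached endpoint = highest concentration. Abbreviation: GI50, concentration required for 50% inhibition of growth. TGI denotes the concentration required for complete inhibition of growth.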
Test system: MDA-MB-468 breast
Test: growth of human tumour cells (NCI), 48 h

Structure (SMILES) | GI50 | TGI
C=C1C[C@@H]2CC[C@@]34C[C@H]5O[C@H]6[C@@H](O3)[C@H]3O[C@H](CC[C@@H]3O[C@H]6[C@@H]5O4)CC(=O)C[C@@H]3[C@@H](OC)[C@@H](C[C@H](O)CN)O[C@H]3C[C@H]3O[C@@H](CC[C@@H]1O2)C[C@@H](C)C3=C | < 0.01 µM | 0.0661 µM
OC(c1cc2ccc(C(F)(F)F)cc2c2cc(C(F)(F)F)ccc12)C1CCCCN1 (stereo not drawn) | 1.6 µM | 3.09 µM
C/C(=N\NC(=S)Nc1ccc(Br)cc1)c1cc2ccccc2oc1=O | 1.22 µM | 5.82 µM
CNC(=O)c1nn(C)c2c1C(C)(C)Cc1cnc(Nc3ccc(N4CCN(C)CC4)cc3)nc1-2 | 0.813 µM | > 4.2 µM
CCc1c2c(nc3ccc(OC(=O)N4CCC(N5CCCCC5)CC4)cc13)-c1cc3c(c(=O)n1C2)COC(=O)[C@]3(O)CC | – | 1.79 µM and 1.51 µM and 5.77 µM
CCC1=CC2CN(C1)Cc1c([nH]c3ccccc13)[C@@](C(=O)OC)(c1cc3c(cc1OC)N(C)[C@H]1[C@@](O)(C(=O)OC)[C@H](OC(C)=O)[C@]4(CC)C=CCN5CC[C@]31[C@@H]54)C2 (stereo partly drawn) | – | 21 µM
CN1/C(=C\C=C\C2=[N+](C)c3ccccc3C2(C)C)C(C)(C)c2ccccc21 | 0.0217 µM | 0.123 µM
O=S(=O)(CCCl)c1ccc(Cl)cc1 | 1.82 µM | 5.77 µM
COc1cc(NCCCCCCCNC(C)C)c2nccc(C)c2c1 | 3.11 µM | 14.7 µM
O=C(Nc1ccc(Cl)c(Cl)c1)NS(=O)(=O)c1cnccc1Oc1ccc(F)cc1 | 4.26 µM | > 100 µM
COC(=O)C1(C)Cc2cc(OC(C)=O)c(OC(C)=O)cc2N1 (stereo not drawn) | 1.9 µM | 6.53 µM
Cn1cc(C2=C(c3cn(C4CCN(Cc5ccccn5)CC4)c4ccccc34)C(=O)NC2=O)c2ccccc21 | 2.08 µM | > 100 µM
c1ccc2[nH]c(-c3ccc(Nc4nc(N5CCCCC5)nc(N5CCOCC5)n4)cc3)nc2c1 | 2.68 µM | 6.51 µM
COc1ccc(OC)c(Cn2cc3c(c2-c2ccccc2)CCc2cnoc2-3)c1 | 2.64 µM | 11.5 µM
Nc1ccc(/C=C/C(=O)NCc2cc3cc(-c4ccc(C(=O)N5CCC(F)(F)CC5)cc4)cc(-c4ccc(F)cc4)c3o2)cn1 | 22.6 µM | > 100 µM
CCCCn1c(-c2ccc(C(=O)O/N=C(\N)c3ccc4c(c3)OCO4)cc2)nc(-c2ccccc2)c1-c1ccccc1 | 3.83 µM | > 100 µM
C=C1C(=O)O[C@H]2[C@H]1CC/C(COC(=O)NCC(C)c1ccc(CC(C)C)cc1)=C\CC[C@@]1(C)O[C@@H]21 (stereo partly drawn) | 0.656 µM | 1.84 µM
COc1ccc(C(=O)c2ccc([As]=O)cc2)cc1 (stereo not drawn) | 0.0692 µM | 0.242 µM
C=C1C(=O)O[C@H]2[C@H]1CC/C(C=Nc1c(N)cc(C(F)(F)F)cc1Br)=C\CC[C@@]1(C)O[C@@H]21 | 1.88 µM | 4.19 µM
O=C1CCCCN1CCCCC#Cc1cccc(C#Cc2cccnc2)c1 | 10.2 µM | 28.5 µM

From PubChem BioAssay (NCI)
